# Assay results from paper PMC5971061, “Differential Effects of Linkers on the Activity of Amphiphilic Tobramycin Antifungals” (Molecules : A Journal of Synthetic Chemistry and Natural …, 2018).
# Like-named read-outs stand apart in the source and are kept apart here.
# Columns and labels:
# [1] = test system: Aspergillus terreus ATCC MYA-3633 (strain M); experiment: MIC, filamentous fungi (CLSI M38-A2), strain M; type: cell-based; conditions: MIC-0, strain M, 35 °C 72 h
# Protocol: (§1) The spores were harvested from sporulating cultures growing on potato dextrose agar (PDA) by filtration through sterile glass wool and enumerated by using a hemocytometer (Hausser Scientific, Horsham, PA, USA) to obtain the desired inoculum size. Two-fold serial dilutions of compounds 3, 4, 7a, 7b, 9, and 16, as well as CAS and TOB were made in sterile 96-well microtiter plates to obtain the final concentration range of 0.24–62.5 μg/mL for TOB and TOB derivatives as well as 0.03–31.3 μg/mL for CAS in the RPMI 1640 medium. The spore suspensions were added to the wells to afford a final concentration of 5 × 10^5 spores/mL. The plates were incubated at 35 °C for 72 h. […] Each test was performed in triplicate.
# [2] = test system: Cryptococcus neoformans clinical isolate CN2; experiment: MIC, broth microdilution (CLSI M27-A3), CN2; type: cell-based; conditions: MIC-0, CN2, 35 °C 48 h
# Protocol: (§2) The final concentrations of compounds 3, 4, 7a, 7b, 9, and 16, as well as that of TOB tested in this study ranged from 0.24–62.5 μg/mL. CAS was used as a positive control and the final concentrations tested for CAS ranged from 0.03–31.3 μg/mL. Briefly, overnight yeast cultures were grown in yeast peptone dextrose (YPD) broth and the cell density was adjusted to an OD600 of 0.12 (~1 × 10^6 CFU/mL) by using a spectrophotometer. Yeast cell suspensions were further diluted to achieve 1–5 × 10^3 CFU/mL in RPMI 1640 medium, and 100 μL of these yeast cells was added to 96-well microtiter plates containing RPMI 1640 medium and titrated compounds. Each test was performed in triplicate. The plates were incubated at 35 °C for 48 h.
# [3] = test system: Candida parapsilosis ATCC 22019 (strain J); experiment: MIC, broth microdilution (CLSI M27-A3), yeast strain J; type: cell-based; conditions: Lodderomyces parapsilosis, ATCC22019; MIC-0, strain J, 35 °C 48 h
# Protocol: as §2
# A549 cell line = experiment: In vitro cytotoxicity assay (resazurin), A549; type: cell-based, human; conditions: for IC50: Homo sapiens, A549, 24 h, resazurin
# Protocol: Mammalian cytotoxicity assays were performed as previously described with minor modifications. The normal human bronchial epithelial cells BEAS-2B and the human lung carcinoma epithelial cells A549 were grown in DMEM containing 10% fetal bovine serum (FBS) and 1% antibiotics. The confluent cells were then trypsinized with 0.05% trypsin and 0.53 mM EDTA, and resuspended in fresh DMEM medium. The cells were transferred into 96-well microtiter plates at a density of 3000 cells/well and were grown for 24 h. The following day, the medium was replaced by a fresh culture medium containing serially diluted compounds 3, 4, 7a, 7b, and 9, as well as the parent drug TOB at final concentrations of 0.48–62.5 μg/mL or sterile ddH2O (negative control). The cells were incubated for an additional 24 h at 37 °C with 5% CO2 in a humidified incubator. To evaluate cell survival, each well was treated with 10 μL (25 μg/mL) of resazurin sodium salt (Sigma-Aldrich) for 4–6 h. Metabolically active cells can convert resazurin (blue) to the highly fluorescent dye resorufin (pink), which was detected at λ560 excitation and λ590 emission wavelengths by using a SpectraMax M5 plate reader. Triton X-100® (1% v/v) gave the complete loss of cell viability and was used as the positive control. The percentage survival rates were calculated by using the following formula: % cell survival = [(fluorescence of sample) − (fluorescence of blank)] × 100/[(fluorescence of negative control) − (fluorescence of blank)].
# [4] = test system: Candida parapsilosis clinical isolate CP2; experiment: MIC, broth microdilution (CLSI M27-A3), CP2; type: cell-based; conditions: Lodderomyces parapsilosis; MIC-0, CP2, 35 °C 48 h
# Protocol: as §2
# [5] = test system: C. albicans ATCC 90819(R) (strain D); experiment: MIC, broth microdilution (CLSI M27-A3), yeast strain D; type: cell-based; conditions: Candida albicans, ATCC90819; MIC-0, strain D, 35 °C 48 h
# Protocol: as §2
# [6] = test system: C. albicans ATCC MYA-2876(S) (strain C); experiment: MIC, broth microdilution (CLSI M27-A3), yeast strain C; type: cell-based; conditions: Candida albicans; MIC-0, strain C, 35 °C 48 h
# Protocol: as §2
# [7] = test system: murine red blood cells (mRBCs); experiment: Hemolytic activity assay; type: cell-based; conditions: at 3.9 μg/mL, 2- to 8-fold their MIC values against the three C. neoformans clinical isolates
# In short: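 Murine RBCs (5 × 10^6 erythrocytes/mL final) incubated with two-fold serial dilutions of compound (0.48–62.5 μg/mL final) in PBS for 1 h at 37 °C. Hemolysis by absorbance, expressed as % relative to 1% Triton X-100 after blank (PBS) subtraction.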
# [8] = test system: C. albicans ATCC MYA-1003(R) (strain G); experiment: MIC, broth microdilution (CLSI M27-A3), yeast strain G; type: cell-based; conditions: Candida albicans; MIC-0, strain G, 35 °C 48 h
# Protocol: as §2
# [9] = test system: C. albicans ATCC MYA-2310(S) (strain E); experiment: MIC, broth microdilution (CLSI M27-A3), yeast strain E; type: cell-based; conditions: Candida albicans; MIC-0, strain E, 35 °C 48 h
# Protocol: as §2
# [10] = test system: seven C. albicans strains (A-G); experiment: MIC across the panel of seven C. albicans strains; type: cell-based; conditions: Candida albicans; across all seven C. albicans strains tested
# Protocol: as §2
# [11] = test system: Candida glabrata clinical isolate CG3; experiment: MIC, broth microdilution (CLSI M27-A3), CG3; type: cell-based; conditions: Nakaseomyces glabratus; MIC-0, CG3, 35 °C 48 h
# Protocol: as §2
# [12] = test system: C. albicans ATCC 64124 (strain B); experiment: MIC, broth microdilution (CLSI M27-A3), yeast strain B; type: cell-based; conditions: Candida albicans, ATCC64124; MIC-0, strain B, 35 °C 48 h
# Protocol: as §2
# [13] = test system: C. albicans ATCC MYA-1237(R) (strain F); experiment: MIC, broth microdilution (CLSI M27-A3), yeast strain F; type: cell-based; conditions: Candida albicans; MIC-0, strain F, 35 °C 48 h
# Protocol: as §2
# [14] = test system: Aspergillus flavus ATCC MYA-3631 (strain K); experiment: MIC, filamentous fungi (CLSI M38-A2), strain K; type: cell-based; conditions: MIC-0, strain K, 35 °C 72 h
# Protocol: as §1
# [15] = Aspergillus flavus, 72 h, read-out: MIC
MIC [1],MIC [2],MIC [3],MIC [4],MIC [5],MIC [6],MIC [8],MIC [9],MIC [10],MIC [11],MIC [12],MIC [13],"MIC [14, 15]",MIC [14],SMILES,IC50 (A549 cell line),mRBCs lysed [7],"toxicity (in words) (A549 cell line; A549, 0.48-62.5 μg/mL, 24 h)"
62.5 µg/mL,0.48 µg/mL,1.95 µg/mL,1.95 µg/mL,15.6 µg/mL,15.6 µg/mL,7.8 µg/mL,7.8 µg/mL,3.9 to 15.6 µg/mL,3.9 µg/mL,3.9 µg/mL,7.8 µg/mL,7.8 to 31.3 µg/mL,7.8 µg/mL,"CCCCCCCCCCCCc1cn(C[C@H]2O[C@H](O[C@@H]3[C@@H](O)[C@H](O[C@H]4O[C@H](CN)[C@@H](O)C[C@H]4N)[C@@H](N)C[C@H]3N)[C@H](O)[C@@H](N)[C@@H]2O)nn1 [Compound 7b, O-3-Amino-3,6-dideoxy-6-(4-dodecyl-1H-1,2,3-triazol-1-yl)-α-D-glucopyranosyl-(1→6)-O-[2,6-diamino-2,3,6-trideoxy-α-D-ribo-hexopyranosyl-(1→4)]-2-deoxy-D-streptamine]",> 62.5 µg/mL,up to 13%,–
> 62.5 µg/mL,0.975 µg/mL,15.6 µg/mL,15.6 µg/mL,62.6 µg/mL,62.5 µg/mL,62.5 µg/mL,31.3 µg/mL,31.3 to 62.5 µg/mL,15.6 µg/mL,31.3 µg/mL,62.5 µg/mL,–,–,"CCCCCCCCCCc1cn(C[C@H]2O[C@H](O[C@@H]3[C@@H](O)[C@H](O[C@H]4O[C@H](CN)[C@@H](O)C[C@H]4N)[C@@H](N)C[C@H]3N)[C@H](O)[C@@H](N)[C@@H]2O)nn1 [Compound 7a, O-3-Amino-3,6-dideoxy-6-(4-decyl-1H-1,2,3-triazol-1-yl)-α-D-glucopyranosyl-(1→6)-O-[2,6-diamino-2,3,6-trideoxy-α-D-ribo-hexopyranosyl-(1→4)]-2-deoxy-D-streptamine]",> 62.5 µg/mL,up to 13%,–

# Further lines, the compound ahead of its results:
SMILES,MIC [1],MIC [2],MIC [3],MIC [4],MIC [5],MIC [6],MIC [8],MIC [9],MIC [10],MIC [11],MIC [12],MIC [13],"MIC [14, 15]",MIC [14],IC50 (A549 cell line),mRBCs lysed [7],"toxicity (in words) (A549 cell line; A549, 0.48-62.5 μg/mL, 24 h)"
"CCCCCCCCCCCC(=O)NC[C@H]1O[C@H](O[C@@H]2[C@@H](O)[C@H](O[C@H]3O[C@H](CN)[C@@H](O)C[C@H]3N)[C@@H](N)C[C@H]2N)[C@H](O)[C@@H](N)[C@@H]1O [Compound 9, O-3-Amino-3,6-dideoxy-6-[(1-oxododecyl)amino]-α-D-glucopyranosyl-(1→6)-O-[2,6-diamino-2,3,6-trideoxy-α-D-ribo-hexopyranosyl-(1→4)]-2-deoxy-D-streptamine]",> 62.5 µg/mL,0.975 µg/mL,7.8 µg/mL,15.6 µg/mL,62.5 µg/mL,31.3 µg/mL,31.3 µg/mL,31.3 µg/mL,15.6 to 62.5 µg/mL,15.6 µg/mL,15.6 µg/mL,31.3 µg/mL,–,–,> 62.5 µg/mL,up to 13%,–
"CCCCCCCCCCCCSC[C@H]1O[C@H](O[C@@H]2[C@@H](O)[C@H](O[C@H]3O[C@H](CN)[C@@H](O)C[C@H]3N)[C@@H](N)C[C@H]2N)[C@H](O)[C@@H](N)[C@@H]1O [Compound 3, O-3-Amino-3-deoxy-6-S-dodecyl-6-thio-α-D-glucopyranosyl-(1→6)-O-[2,6-diamino-2,3,6-trideoxy-α-D-ribo-hexopyranosyl-(1→4)]-2-deoxy-D-streptamine]",> 62.5 µg/mL,0.48 µg/mL,7.8 µg/mL,7.8 µg/mL,15.6 µg/mL,15.6 µg/mL,15.6 µg/mL,15.6 µg/mL,7.8 to 31.3 µg/mL,15.6 µg/mL,15.6 µg/mL,7.8 µg/mL,7.8 to 31.3 µg/mL,15.6 µg/mL,–,up to 13%,–
"CCCCCCCCCCCCS(=O)(=O)C[C@H]1O[C@H](O[C@@H]2[C@@H](O)[C@H](O[C@H]3O[C@H](CN)[C@@H](O)C[C@H]3N)[C@@H](N)C[C@H]2N)[C@H](O)[C@@H](N)[C@@H]1O [Compound 4, O-3-Amino-3,6-dideoxy-6-(dodecylsulfonyl)-α-D-glucopyranosyl-(1→6)-O-[2,6-diamino-2,3,6-trideoxy-α-D-ribo-hexopyranosyl-(1→4)]-2-deoxy-D-streptamine]",62.5 µg/mL,0.48 µg/mL,7.8 µg/mL,3.9 µg/mL,15.6 µg/mL,15.6 µg/mL,15.6 µg/mL,15.6 µg/mL,7.8 to 31.3 µg/mL,3.9 µg/mL,31.3 µg/mL,15.6 µg/mL,–,–,> 62.5 µg/mL,up to 13%,–
"NC[C@H]1O[C@H](O[C@H]2[C@H](O)[C@@H](O[C@H]3O[C@H](CO)[C@@H](O)[C@H](N)[C@H]3O)[C@H](N)C[C@@H]2N)[C@H](N)C[C@@H]1O [TOB, tobramycin]",> 62.5 µg/mL,> 62.5 µg/mL,> 62.5 µg/mL,> 62.5 µg/mL,> 62.5 µg/mL,> 62.5 µg/mL,> 62.5 µg/mL,> 62.5 µg/mL,> 62.5 µg/mL,> 62.5 µg/mL,> 62.5 µg/mL,> 62.5 µg/mL,> 62.5 µg/mL,–,–,–,little to no toxicity
